# Data published in patent US20100029657A1, “Bridged, Bicyclic Heterocyclic or Spiro Bicyclic Heterocyclic Derivatives of Pyrazolo[1, 5-A]Pyrimidines, Methods for Preparation and Uses Thereof” (Wyeth, priority 2008, published 2010).
# Molecular target: T1, Flag/GST-tagged recombinant human B-Raf (Homo sapiens, UniProt P15056)
# T1 construct: Flag; GST; made in house; host or cells: Sf9 insect cells (B-Raf); E. coli (MEK1-GST)
# Experiment: B-Raf kinase assay (phosphorylation of GST-MEK1, phospho-MEK1 antibody/Europium detection)
# Type: biochemical
# Details: B-Raf IC50 Data for compounds of Formula A; read-out: Mean IC50
# In short: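 Percent inhibition was calculated at each compound concentration from Europium time-resolved fluorescence (anti-phospho-MEK1, then Eu-conjugated anti-rabbit) after GST capture. The upstream kinase step used GST-MEK1 with 0.2 nM B-Raf for 45 min at room temperature in MOPS buffer, pH 7.2. It was started with a cocktail of 200 μM ATP and 40 mM MgCl2.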
# T1 sequence (P15056 whole entry): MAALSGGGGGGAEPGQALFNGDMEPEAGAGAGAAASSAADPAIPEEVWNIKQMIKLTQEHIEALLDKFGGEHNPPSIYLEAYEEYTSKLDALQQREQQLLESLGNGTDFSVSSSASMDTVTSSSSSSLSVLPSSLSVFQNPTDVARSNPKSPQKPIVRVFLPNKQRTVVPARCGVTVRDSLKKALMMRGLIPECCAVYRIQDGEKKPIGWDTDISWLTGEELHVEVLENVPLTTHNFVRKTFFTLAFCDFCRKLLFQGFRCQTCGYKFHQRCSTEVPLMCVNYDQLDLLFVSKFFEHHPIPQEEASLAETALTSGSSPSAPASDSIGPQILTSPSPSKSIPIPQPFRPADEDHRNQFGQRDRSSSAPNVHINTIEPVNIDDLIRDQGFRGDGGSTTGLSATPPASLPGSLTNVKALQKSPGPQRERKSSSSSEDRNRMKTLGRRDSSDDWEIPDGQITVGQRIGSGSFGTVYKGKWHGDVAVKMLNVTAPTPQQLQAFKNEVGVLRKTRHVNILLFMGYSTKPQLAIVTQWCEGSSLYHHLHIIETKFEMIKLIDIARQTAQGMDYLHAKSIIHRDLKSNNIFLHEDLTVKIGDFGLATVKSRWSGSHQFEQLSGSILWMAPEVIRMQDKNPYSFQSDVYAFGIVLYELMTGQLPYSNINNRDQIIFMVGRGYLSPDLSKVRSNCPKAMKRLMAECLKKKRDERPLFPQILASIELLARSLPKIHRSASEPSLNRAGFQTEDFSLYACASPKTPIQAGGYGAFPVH
row,SMILES,IC50 [nM]
1,"CC(=O)CN1C2CCC1CC(c1ccnc3c(-c4cccc5[nH]ncc45)c(-c4ccncc4)nn13)C2 (stereo not shown) [Example 130, 1-{3-[3-(1H-indazol-4-yl)-2-pyridin-4-ylpyrazolo[1,5-a]pyrimidin-7-yl]-8-azabicyclo[3.2.1]oct-8-yl}propan-2-one]",75.9
2,"Fc1ccc(-c2c(-c3ccncc3)nn3c(C4CC5CCC(C4)N5)ccnc23)c2cn[nH]c12 (stereo not shown) [Example 137, 7-(8-azabicyclo[3.2.1]oct-3-yl)-3-(7-fluoro-1H-indazol-4-yl)-2-pyridin-4-ylpyrazolo[1,5-a]pyrimidine]",3.8
3,"CN1C[C@@H]2C[C@H]1CN2c1ccc(-c2ccnc3c(-c4ccc(Cl)c5[nH]ncc45)c(-c4ccncc4)nn23)cc1 [Example 141, 3-(7-chloro-1H-indazol-4-yl)-7-{4-[(1S,4S)-5-methyl-2,5-diazabicyclo[2.2.1]hept-2-yl]phenyl}-2-pyridin-4-ylpyrazolo[1,5-a]pyrimidine]",2.3
4,"c1cc(-c2c(-c3ccncc3)nn3c(C4CCC5(CC4)OCCO5)ccnc23)c2cn[nH]c2c1 [Example 142, 7-(1,4-dioxaspiro[4.5]dec-8-yl)-3-(1H-indazol-4-yl)-2-pyridin-4-ylpyrazolo[1,5-a]pyrimidine]",2.2
5,"Fc1cc(F)c(-c2ccnc3c(-c4cccc5[nH]ncc45)c(-c4ccncc4)nn23)c(N2C[C@@H]3C[C@H]2CN3)c1 [Example 145, 7-{2-[(1S,4S)-2,5-diazabicyclo[2.2.1]hept-2-yl]-4,6-difluorophenyl}-3-(1H-indazol-4-yl)-2-pyridin-4-ylpyrazolo[1,5-a]pyrimidine]",74.4
6,"CN(C)c1cc(N2C[C@@H]3C[C@H]2CN3)ccc1-c1ccnc2c(-c3cccc4[nH]ncc34)c(-c3ccncc3)nn12 [Example 146, 5-[(1S,4S)-2,5-diazabicyclo[2.2.1]hept-2-yl]-2-[3-(1H-indazol-4-yl)-2-pyridin-4-ylpyrazolo[1,5-a]pyrimidin-7-yl]-N,N-dimethylaniline]",6.3
7,"CN1C[C@@H]2C[C@H]1CN2c1cc(F)cc(F)c1-c1ccnc2c(-c3cccc4[nH]ncc34)c(-c3ccncc3)nn12 [Example 147, 7-{2,4-difluoro-6-[(1S,4S)-5-methyl-2,5-diazabicyclo[2.2.1]hept-2-yl]phenyl}-3-(1H-indazol-4-yl)-2-pyridin-4-ylpyrazolo[1,5-a]pyrimidine]",> 100
8,"CN(C)c1cc(N2C[C@@H]3C[C@H]2CN3C)ccc1-c1ccnc2c(-c3cccc4[nH]ncc34)c(-c3ccncc3)nn12 [Example 148, 2-[3-(1H-indazol-4-yl)-2-pyridin-4-ylpyrazolo[1,5-a]pyrimidin-7-yl]-N,N-dimethyl-5-[(1S,4S)-5-methyl-2,5-diazabicyclo[2.2.1]hept-2-yl]aniline]",7.3
9,"c1cc(-c2c(-c3ccncc3)nn3c2nccc3[C@H]2CC[C@@H](N3C[C@@H]4C[C@H]3CN4)CC2)c2cn[nH]c2c1 [Example 149, 7-{cis-4-[(1S,4S)-2,5-diazabicyclo[2.2.1]hept-2-yl]cyclohexyl}-3-(1H-indazol-4-yl)-2-pyridin-4-ylpyrazolo[1,5-a]pyrimidine]",3.2
10,"c1cc(-c2c(-c3ccncc3)nn3c2nccc3[C@H]2CC[C@@H](N3C[C@@H]4C[C@H]3CO4)CC2)c2cn[nH]c2c1 [Example 154, 3-(1H-indazol-4-yl)-7-{cis-4-[(1S,4S)-2-oxa-5-azabicyclo[2.2.1]hept-5-yl]cyclohexyl}-2-pyridin-4-ylpyrazolo[1,5-a]pyrimidine]",11.4
11,"c1cc(-c2c(-c3ccncc3)nn3c2nccc3[C@H]2CC[C@H](N3C[C@@H]4C[C@H]3CO4)CC2)c2cn[nH]c2c1 [Example 155, 3-(1H-indazol-4-yl)-7-{trans-4-[(1S,4S)-2-oxa-5-azabicyclo[2.2.1]hept-5-yl]cyclohexyl}-2-pyridin-4-ylpyrazolo[1,5-a]pyrimidine]",3.5
12,"c1cc(-c2c(-c3ccncc3)nn3c(-c4ccc(N5C[C@@H]6C[C@H]5CN6)c5ccccc45)ccnc23)c2cn[nH]c2c1 [Example 158, 7-{4-[(1S,4S)-2,5-diazabicyclo[2.2.1]hept-2-yl]-1-naphthyl}-3-(1H-indazol-4-yl)-2-pyridin-4-ylpyrazolo[1,5-a]pyrimidine]",20.9
13,"CN1C[C@@H]2C[C@H]1CN2c1ccc(-c2ccnc3c(-c4cccc5[nH]ncc45)c(-c4ccncc4)nn23)c2ccccc12 [Example 160, 3-(1H-indazol-4-yl)-7-{4-[(1S,4S)-5-methyl-2,5-diazabicyclo[2.2.1]hept-2-yl]-1-naphthyl}-2-pyridin-4-ylpyrazolo[1,5-a]pyrimidine]",25.3

# The next compounds have a lower IC50 than those just listed; values first:
row,IC50 [nM],SMILES
1,2.1,"O=C([C@@H]1CCCN1)N1C2CCC1CC(c1ccnc3c(-c4cccc5[nH]ncc45)c(-c4ccncc4)nn13)C2 (stereo partly drawn) [Example 129, 3-(1H-indazol-4-yl)-7-(8-L-prolyl-8-azabicyclo[3.2.1]oct-3-yl)-2-pyridin-4-ylpyrazolo[1,5-a]pyrimidine]"
2,1,"CCOC(=O)N1C2CCC1CC(c1ccn3nc(-c4ccncc4)c(-c4ccc(F)c5[nH]ncc45)c3n1)C2 (stereo not shown) [Example 131, ethyl 3-[3-(7-fluoro-1H-indazol-4-yl)-2-pyridin-4-ylpyrazolo[1,5-a]pyrimidin-5-yl]-8-azabicyclo[3.2.1]octane-8-carboxylate]"
3,0.4,"COc1cccc(-c2c(-c3ccncc3)nn3c(-c4ccc(N5C[C@@H]6C[C@H]5CN6)cc4F)ccnc23)c1 [Example 132, 7-{4-[(1S,4S)-2,5-diazabicyclo[2.2.1]hept-2-yl]-2-fluorophenyl}-3-(3-methoxyphenyl)-2-pyridin-4-ylpyrazolo[1,5-a]pyrimidine]"
4,< 0.3,"Oc1cccc(-c2c(-c3ccncc3)nn3c(-c4ccc(N5C[C@@H]6C[C@H]5CN6)cc4F)ccnc23)c1 [Example 133, 3-(7-{4-[(1S,4S)-2,5-diazabicyclo[2.2.1]hept-2-yl]-2-fluorophenyl}-2-pyridin-4-ylpyrazolo[1,5-a]pyrimidin-3-yl)phenol]"
5,< 0.3,"CN1C[C@@H]2C[C@H]1CN2c1ccc(-c2ccnc3c(-c4cccc(O)c4)c(-c4ccncc4)nn23)c(F)c1 [Example 134, 3-(7-{2-fluoro-4-[(1S,4S)-5-methyl-2,5-diazabicyclo[2.2.1]hept-2-yl]phenyl}-2-pyridin-4-ylpyrazolo[1,5-a]pyrimidin-3-yl)phenol]"
6,< 0.3,"Cc1cc(N2C[C@@H]3C[C@H]2CN3)ccc1-c1ccnc2c(-c3ccc(F)c4[nH]ncc34)c(-c3ccncc3)nn12 [Example 135, 7-{4-[(1S,4S)-2,5-diazabicyclo[2.2.1]hept-2-yl]-2-methylphenyl}-3-(7-fluoro-1H-indazol-4-yl)-2-pyridin-4-ylpyrazolo[1,5-a]pyrimidine]"
7,< 0.3,"Cc1cc(N2C[C@@H]3C[C@H]2CN3C)ccc1-c1ccnc2c(-c3ccc(F)c4[nH]ncc34)c(-c3ccncc3)nn12 [Example 136, 3-(7-fluoro-1H-indazol-4-yl)-7-{2-methyl-4-[(1S,4S)-5-methyl-2,5-diazabicyclo[2.2.1]hept-2-yl]phenyl}-2-pyridin-4-ylpyrazolo[1,5-a]pyrimidine]"
8,0.4,"N#CCN1C2CCC1CC(c1ccnc3c(-c4ccc(F)c5[nH]ncc45)c(-c4ccncc4)nn13)C2 (stereo not shown) [Example 138, {3-[3-(7-fluoro-1H-indazol-4-yl)-2-pyridin-4-ylpyrazolo[1,5-a]pyrimidin-7-yl]-8-azabicyclo[3.2.1]oct-8-yl}acetonitrile]"
9,1.2,"Clc1ccc(-c2c(-c3ccncc3)nn3ccc(-c4ccc(N5C[C@@H]6C[C@H]5CN6)cc4)nc23)c2cn[nH]c12 [Example 139, 3-(7-chloro-1H-indazol-4-yl)-5-{4-[(1S,4S)-2,5-diazabicyclo[2.2.1]hept-2-yl]phenyl}-2-pyridin-4-ylpyrazolo[1,5-a]pyrimidine]"
10,1.2,"CN1C2CCC1CN(c1ccc(-c3ccnc4c(-c5cccc6[nH]ncc56)c(-c5ccncc5)nn34)cn1)C2 [Example 140, 3-(1H-indazol-4-yl)-7-[6-(8-methyl-3,8-diazabicyclo[3.2.1]oct-3-yl)pyridin-3-yl]-2-pyridin-4-ylpyrazolo[1,5-a]pyrimidine]"
11,0.7,"CN1C[C@@H]2CC[C@H]1CN2c1ccc(-c2ccnc3c(-c4cccc5[nH]ncc45)c(-c4ccncc4)nn23)cc1 [Example 143, 3-(1H-indazol-4-yl)-7-{4-[(1S,4S)-5-methyl-2,5-diazabicyclo[2.2.2]oct-2-yl]phenyl}-2-pyridin-4-ylpyrazolo[1,5-a]pyrimidine]"
12,0.6,"c1cc(-c2c(-c3ccncc3)nn3c(-c4ccc(N5C[C@@H]6CC[C@H]5CN6)cc4)ccnc23)c2cn[nH]c2c1 [Example 144, 7-{4-[(1S,4S)-2,5-diazabicyclo[2.2.2]oct-2-yl]phenyl}-3-(1H-indazol-4-yl)-2-pyridin-4-ylpyrazolo[1,5-a]pyrimidine]"
13,0.6,"c1cc(-c2c(-c3ccncc3)nn3c2nccc3[C@H]2CC[C@H](N3C[C@@H]4C[C@H]3CN4)CC2)c2cn[nH]c2c1 [Example 156, 7-{trans-4-[(1S,4S)-2,5-diazabicyclo[2.2.1]hept-2-yl]cyclohexyl}-3-(1H-indazol-4-yl)-2-pyridin-4-ylpyrazolo[1,5-a]pyrimidine]"
14,1.2,"FC(F)(F)c1cc(-c2ccnc3c(-c4cccc5[nH]ncc45)c(-c4ccncc4)nn23)ccc1N1C[C@@H]2C[C@H]1CN2 [Example 157, 7-{4-[(1S,4S)-2,5-diazabicyclo[2.2.1]hept-2-yl]-3-(trifluoromethyl)phenyl}-3-(1H-indazol-4-yl)-2-pyridin-4-ylpyrazolo[1,5-a]pyrimidine]"
15,2,"CN1C[C@@H]2C[C@H]1CN2c1ccc(-c2ccnc3c(-c4cccc5[nH]ncc45)c(-c4ccncc4)nn23)cc1C(F)(F)F [Example 159, 3-(1H-indazol-4-yl)-7-{4-[(1S,4S)-5-methyl-2,5-diazabicyclo[2.2.1]hept-2-yl]-3-(trifluoromethyl)phenyl}-2-pyridin-4-ylpyrazolo[1,5-a]pyrimidine]"
